Read-outs that look alike come from different tables or passages of the source.
Columns and labels:
W2 P. falciparum = system: W2 P. falciparum; parameters: method as in PMID 21741131; details: W2 strain; cited from earlier work
K1 P. falciparum strain [1] = details: previously described compounds; ref 9 (A), 10 (B), 11 (C), 12 (series D); read-out: Antiplasmodial activity EC50 P. falciparum K1; cited from earlier work
HepG2 cell line = system: HepG2 cell line; parameters: method as in earlier work; details: previously described compounds; ref 9 (A), 10 (B), 11 (C), 12 (series D); read-out: Cytotoxicity CC50 HepG2; cited from earlier work
[2] = Solubility of the tested molecule in the culture medium; assay type: physicochemical; details: culture medium of the cytotoxicity test
Procedure: HepG2 cell line was maintained at 37 °C, 5% CO2, at 90% humidity in […] supplemented with 10% fetal bovine serum, 1% L-glutamine (200 mM) and penicillin (100 U/mL)/streptomycin (100 µg/mL) (complete RPMI medium). The cytotoxicity of the tested molecules on the HepG2 (hepatocarcinoma cell line purchased from ATCC, ref HB-8065) cell line was assessed according to the method of Mosmann with slight modifications. Briefly, 5.10^3 cells in 100 µL of complete medium were inoculated into each well of 96-well plates and incubated at 37 °C in humidified 5% CO2. After 24 h incubation, 100 μL of medium with various product concentrations dissolved in DMSO (final concentration less than 0.5% v/v) were added and the plates were incubated for 72 h at 37 °C. Triplicate assays were performed for each sample. Each plate-well was then microscope-examined for possible precipitate formation before the medium was aspirated from the wells. 100 μL of MTT (3-(4,5-dimethyl-2-thiazolyl)-2,5-diphenyl-2H-tetrazolium bromide) solution (0.5 mg/mL in medium without FBS) were then added to each well. Cells were incubated for 2 h at 37 °C. After this time, the MTT solution was removed and DMSO (100 μL) was added to dissolve the resulting blue formazan crystals. Plates were shaken vigorously (700 rpm) for 10 min. The absorbance was measured at 570 nm with 630 nm as reference wavelength using a BIO-TEK ELx808 Absorbance Microplate Reader (LabX, Midland, ON, Canada). DMSO was used as blank and doxorubicin (purchased from Sigma Aldrich) as positive control. Cell viability was calculated as percentage of control (cells incubated without compound). […] CC50 values represent the mean value calculated from three independent experiments.

[3] = In vitro cytotoxicity evaluation (MTT); assay type: cell-based; details: human
Procedure: Triplicate assays were performed for each sample. Each plate-well was then microscope-examined for possible precipitate formation before the medium was aspirated from the wells. 100 μL of MTT (3-(4,5-dimethyl-2-thiazolyl)-2,5-diphenyl-2H-tetrazolium bromide) solution (0.5 mg/mL in medium without FBS) were then added to each well. […] After this time, the MTT solution was removed and DMSO (100 μL) was added to dissolve the resulting blue formazan crystals. Plates were shaken vigorously (700 rpm) for 10 min. The absorbance was measured at 570 nm with 630 nm as reference wavelength using a BIO-TEK ELx808 Absorbance Microplate Reader (LabX, Midland, ON, Canada). DMSO was used as blank and doxorubicin (purchased from Sigma Aldrich) as positive control. Cell viability was calculated as percentage of control (cells incubated without compound). […] CC50 values represent the mean value calculated from three independent experiments.

K1 P. falciparum strain [4] = test: In vitro antiplasmodial evaluation (SYBR Green I fluorescence-based method); assay type: cell-based; details: for SI (selectivity index = CC50/EC50): CC50 HepG2 / EC50 PfK1; for EC50: multi-resistant K1 P. falciparum strain, 72 h incubation, read-out: PfK1 EC50
Procedure: It was maintained in continuous culture as described previously by Trager and Jensen. […] Parasitemia was maintained daily at between 1 and 3%. The P. falciparum drug susceptibility test was carried out by comparing quantities of DNA in treated and control cultures of parasite in human erythrocytes according to an SYBR Green I fluorescence-based method using a 96-well fluorescence plate reader. […] Duplicate assays were performed for each sample. After incubation, plates were frozen at -20 °C for 24 h. […] Fifteen μL of each sample were transferred to 96-well flat bottom non-sterile black plates (Greiner Bio-one) already containing 15 μL of the SYBR Green I lysis buffer (2X SYBR Green I, 20 mM Tris base pH 7.5, 20 mM EDTA, 0.008% w/v saponin, 0.08% w/v Triton X-100).

[5] = Plasmodium falciparum, K1, 72 h

| Structure (SMILES) | EC50 (K1 P. falciparum strain [4]; [5]) [µM] | melting point [°C] | CC50 at 72 h [3] [µM] | SI (selectivity index = CC50/EC50) (K1 P. falciparum strain [4]) | also measured |
| --- | --- | --- | --- | --- | --- |
| Oc1nc(C(Cl)(Cl)Cl)nc2ccccc12 [2-(trichloromethyl)quinazolin-4-ol] |  |  |  |  | activity against W2 P. falciparum (in words) (W2 P. falciparum): not active |
| Fc1ccc(-c2nc(C(Cl)(Cl)Cl)nc3ccccc23)cc1 [A, 4-(4′-fluorophenyl)-2-trichloromethylquinazoline] |  |  |  |  | EC50 (K1 P. falciparum strain [1]): 2.5 µM; CC50 (HepG2 cell line): > 125 µM |
| O=[N+]([O-])c1ccc(COc2nc(C(Cl)(Cl)Cl)nc3ccccc23)cc1 [C] |  |  |  |  | EC50 (K1 P. falciparum strain [1]): 1.8 µM; CC50 (HepG2 cell line): 19.4 µM |
| CCC(=O)Nc1nc(C(Cl)(Cl)Cl)nc2ccccc12 [Molecule 21, N-(2-Trichloromethylquinazolin-4-yl)propionamide] | 4.9 | 171 | > 62.5 | >12.8 | solubility (in words) [2]: lack of solubility |
| COc1nc(C(Cl)(Cl)Cl)nc2ccccc12 [Molecule 26, 4-Methoxy-2-Trichloromethylquinazoline] | 7.1 | 83 | 39.3 | 5.5 |  |
| CC(C)Oc1nc(C(Cl)(Cl)Cl)nc2ccccc12 [Molecule 30, 4-Isopropoxy-2-Trichloromethylquinazoline] | > 10 | 210 | 102 | <10 | activity against P. falciparum (in words) (K1 P. falciparum strain [4]; K1 strain): inactive |
| COCCOc1nc(C(Cl)(Cl)Cl)nc2ccccc12 [Molecule 35, 4-(2-Methoxyethoxy)-2-Trichloromethylquinazoline] | 2.3 | 63 | 53.2 | 23.1 |  |
| ClCCCOc1nc(C(Cl)(Cl)Cl)nc2ccccc12 [Molecule 37, 4-(3-Chloropropoxy)-2-Trichloromethylquinazoline] | 4.2 | 77 | 60.4 | 14.4 |  |
| ClC(Cl)(Cl)c1nc(OCCBr)c2ccccc2n1 [Molecule 40, 4-(2-Bromoethoxy)-2-Trichloromethylquinazoline] | 2.2 | 100 | > 62.5 | >28 |  |
| CCN(CC)CCOc1nc(C(Cl)(Cl)Cl)nc2ccccc12 [Molecule 41, N,N-Diethyl-2-[(2-Trichloromethylquinazolin-4-yl)oxy]ethanamine] |  | 137 | 32.3 |  | IC50 (K1 P. falciparum strain [4]; Plasmodium falciparum, K1, Figures 2 and 3, read-out: IC50 P. falci. K1): 0.9 µM |
| CC(=O)NCCOc1nc(C(Cl)(Cl)Cl)nc2ccccc12 [Molecule 42, N-{2-[(2-Trichloromethylquinazolin-4-yl)oxy]ethyl}acetamide] | 3.3 | 135 | > 99.7 | >30 |  |

Further lines, with some results ahead:

| EC50 (K1 P. falciparum strain [4]; [5]) [µM] | melting point [°C] | Structure (SMILES) | CC50 at 72 h [3] [µM] | SI (selectivity index = CC50/EC50) (K1 P. falciparum strain [4]) | also measured |
| --- | --- | --- | --- | --- | --- |
| 3 | 257 | O=C(Nc1nc(C(Cl)(Cl)Cl)nc2ccccc12)c1ccccc1[N+](=O)[O-] [Molecule 8, 2-Nitro-N-(2-Trichloromethylquinazolin-4-yl)benzamide] | > 15.6 | >5.2 | solubility (in words) [2]: lack of solubility |
| 5.23 |  | O=C(Nc1nc(C(Cl)(Cl)Cl)nc2ccccc12)c1ccccc1F [Molecule 11, 2-Fluoro-N-(2-Trichloromethylquinazolin-4-yl)benzamide] | > 15.6 |  | solubility (in words) [2]: lack of solubility |
| 14.5 | 214 | O=C(Nc1nc(C(Cl)(Cl)Cl)nc2ccccc12)c1ccccn1 [Molecule 17, N-(2-Trichloromethylquinazolin-4-yl)picolinamide] | > 7.8 | >0.5 | solubility (in words) [2]: lack of solubility |
| > 10 | 217 | CC(=O)Nc1nc(C(Cl)(Cl)Cl)nc2ccccc12 [Molecule 20, N-(2-Trichloromethylquinazolin-4-yl)acetamide] | 31.2 |  | solubility (in words) [2]: lack of solubility |
| ≤ 2 | 136 | CCCCC(=O)Nc1nc(C(Cl)(Cl)Cl)nc2ccccc12 [Molecule 24, N-(2-Trichloromethylquinazolin-4-yl)pentanamide] | 42.3 |  | solubility (in words) [2]: lack of solubility; EC50 (K1 P. falciparum strain [4]): 1.6 µM |
| 4.7 | 73 | CCOc1nc(C(Cl)(Cl)Cl)nc2ccccc12 [Molecule 27, 4-Ethoxy-2-Trichloromethylquinazoline] | 47.1 | 10 |  |
| 3.5 | 39 | CCCOc1nc(C(Cl)(Cl)Cl)nc2ccccc12 [Molecule 28, 4-Propoxy-2-Trichloromethylquinazoline] | 54.8 | 15 |  |
| 3.4 | 62 | C#CCOc1nc(C(Cl)(Cl)Cl)nc2ccccc12 [Molecule 31, 4-(Prop-2-ynyloxy)-2-Trichloromethylquinazoline] | 49.6 | 14.6 |  |
| > 10 | 92 | C#CC(C)Oc1nc(C(Cl)(Cl)Cl)nc2ccccc12 (centres unmarked) [Molecule 32, 4-(But-3-yn-2-yloxy)-2-Trichloromethylquinazoline] | 45 | <4.5 |  |
| > 10 | 96 | C#CC(Oc1nc(C(Cl)(Cl)Cl)nc2ccccc12)C(C)C (centres unmarked) [Molecule 33, 4-(4-Methylpent-1-yn-3-yloxy)-2-Trichloromethylquinazoline] | 30.6 | <3 |  |
| 10 | 93 | OCCOc1nc(C(Cl)(Cl)Cl)nc2ccccc12 [Molecule 34, 2-(2-Trichloromethylquinazolin-4-yloxy)ethanol] | 7.9 | 0.8 |  |
| 2.2 | 54 | ClCCOc1nc(C(Cl)(Cl)Cl)nc2ccccc12 [Molecule 36, 4-(2-Chloroethoxy)-2-Trichloromethylquinazoline] | > 62.5 | >28 |  |
| 8 | 73 | FCCOc1nc(C(Cl)(Cl)Cl)nc2ccccc12 [Molecule 39, 4-(2-Fluoroethoxy)-2-Trichloromethylquinazoline] | 29.5 | 3.7 |  |
